Test results published in PubChem BioAssay (NCI).
“And” between values parts separate entries of the source, which are not always exact repeats. Equal values may be shown once.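 Test compounds were applied to cells in 96-well plates for 48 hours at 5 doses. Here, GI50 denotes the concentration required for 50% inhibition of growth. TGI: concentration producing complete growth inhibition.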 Where a SMILES comes first, the peptide text is derived from it. The star is where a group is joined. Boc = CC(C)(C)OC(=O)*

Tested on: RPMI-8226 leukemia
Experiment: DTP human tumour cell line panel, 48 h

SMILES | GI50 | TGI
CN(C)C/C=C/C(=O)Nc1cc2c(Nc3ccc(F)c(Cl)c3)ncnc2cc1O[C@H]1CCOC1 | 1.76 µM and 2.14 µM | 5.39 µM and > 6.56 µM
Cn1cnnc1Sc1c([N+](=O)[O-])ncn1C |  | > 100 µM
C=CCC1(CN(C)C)CC/C(=C\c2ccc(Cl)cc2)C1=O (stereo not drawn) |  | 53.6 µM
C[Si](C)(C)/C(I)=C/CO |  | 40.7 µM
Oc1ccc(Nc2c3ccccc3nc3occ(Cl)c23)cc1 | 1.61 µM | 4.81 µM
CCCCCCCN=C(N)c1ccc(N2CCN(c3ccc(C(N)=NCCCCCCC)cc3)CC2)cc1 | 0.785 µM | > 100 µM
Cc1ccc(S(=O)OCc2c(C)c(C)c(COS(=O)c3ccc(C)cc3)c(C)c2C)cc1 (stereo not drawn) |  | > 100 µM
C[C@]12CCC(=O)C=C1CC[C@@H]1C2CC[C@]2(C)Nc3[nH]ncc3CC12 (stereo partly drawn) |  | > 100 µM
CCOC(=O)/C=C/c1ccc(C#Cc2ccccc2)cc1 | 54.5 µM | > 100 µM
O=[P@@]1(c2ccccc2)O[C@H](COCc2ccccc2)[C@@H](OCc2ccccc2)[C@H](OCc2ccccc2)[C@H]1NCc1ccccc1 | 2.97 µM | > 100 µM
CSc1ccccc1C#C/C=C\C#Cc1ccccc1N | 2.72 µM | 12.7 µM
CCOC(=O)c1ccc(N=Nc2cc(C(=O)OCC)ccc2O)cc1 |  | > 100 µM
Cc1cc2cc3c(=O)[nH]c(=O)[nH]c3nc2cc1C |  | > 100 µM
[N-]=[N+]=N/C1=C/CCCCC(=O)C1 |  | > 100 µM
O=C(O)c1ccc(C(=O)O)c2c(C(=O)O)ccc(C(=O)O)c12 |  | > 100 µM
Cc1cc(N(CCCNc2ccnc3cc(Cl)ccc23)Cc2ccc3c(c2)OCO3)nc(N2CCOCC2)n1 | 0.33 µM | 2.15 µM
O=C(/C=C/C=C/c1ccccc1)c1ccccc1 |  | 72.5 µM
CCOC(=O)C1SC(=Nc2ccccc2)N=C1C (stereo not drawn) |  | > 100 µM
C=CCN1CCC23c4c5ccc(O)c4OC2C(=NN=C2CCC4(O)C6Cc7ccc(O)c8c7C4(CCN6CC=C)C2O8)CCC3(O)C1C5 (stereo not drawn) |  | > 100 µM
COC(=O)c1ccc(-c2c(C#N)[n+](=O)c3cc(Cl)c(Cl)cc3n2[O-])cc1 | 29.8 µM | 83.4 µM
COC(=O)C(C)NC(=O)C(CCSC)NC(=O)C(Cc1ccccc1)NC(=O)OC(C)(C)C (stereo not drawn) (Boc-Phe-Met-Ala-OMe; configuration not given here) | 22.4 µg/mL | 49.5 µg/mL and > 100 µM
C/C(=N\NC(=S)N1CCCCCC1)c1ccccn1 |  | 0.321 µM and 0.132 µM
Cn1cc(-c2csc(-c3c[nH]c4ccc(Br)cc34)n2)c2cnccc21 | 2.13 µM | 4.8 µM
COc1ccc(Cn2c(N)c(S(=O)(=O)c3ccc(Cl)cc3)c3nc(C#N)c(C#N)nc32)cc1 | 22.5 µM | > 50 µM

Tested on: UACC-62 melanoma
Experiment: DTP human tumour cell line panel, 48 h

SMILES | GI50 | TGI
Cn1c(Nc2ccc(C(F)(F)F)cc2)nc2cc(Oc3ccnc(-c4ncc(C(F)(F)F)[nH]4)c3)ccc21 | 0.0519 µM | 3.89 µM
C[C@@]12CCC[C@@](C)(C(=O)O)C1CC[C@]13CC(=O)[C@](CO)(C1)[C@@H](O)CC32 (stereo partly drawn) | > 100 µM | > 100 µM
CN(C)C/C=C/C(=O)Nc1cc2c(Nc3ccc(F)c(Cl)c3)ncnc2cc1O[C@H]1CCOC1 | 2.39 µM and 3.28 µM | 7.49 µM and > 10 µM
Cn1cnnc1Sc1c([N+](=O)[O-])ncn1C |  | > 100 µM
C=CCC1(CN(C)C)CC/C(=C\c2ccc(Cl)cc2)C1=O (stereo not drawn) |  | > 100 µM
COC(=O)c1cc2c(s1)-c1nccc3c1c(nc1ccccc13)C2=O | > 100 µM | > 100 µM
C[Si](C)(C)/C(I)=C/CO |  | 52.9 µM
Oc1ccc(Nc2c3ccccc3nc3occ(Cl)c23)cc1 | 2.4 µM | 10.4 µM
CCCCCCCN=C(N)c1ccc(N2CCN(c3ccc(C(N)=NCCCCCCC)cc3)CC2)cc1 | 0.346 µM | 
C[Si](C)(C)/C(Br)=C\CCN1C(=O)CCC1=O |  | > 100 µM
Cc1ccc(S(=O)OCc2c(C)c(C)c(COS(=O)c3ccc(C)cc3)c(C)c2C)cc1 (stereo not drawn) |  | > 100 µM
C[C@]12CCC(=O)C=C1CC[C@@H]1C2CC[C@]2(C)Nc3[nH]ncc3CC12 (stereo partly drawn) |  | > 100 µM
CCOC(=O)/C=C/c1ccc(C#Cc2ccccc2)cc1 | 83.5 µM | > 100 µM
O=[P@@]1(c2ccccc2)O[C@H](COCc2ccccc2)[C@@H](OCc2ccccc2)[C@H](OCc2ccccc2)[C@H]1NCc1ccccc1 | 2.92 µM | 13.1 µM
C[C@H]1CN[C@@H]2[C@@H](C)[C@H]3[C@@H](C[C@H]4[C@@H]5CC[C@H]6C[C@@H](N)CC[C@]6(C)[C@H]5CC[C@]34C)O[C@@]2(O)C1 |  | 4.6 µM
CSc1ccccc1C#C/C=C\C#Cc1ccccc1N | 7.83 µM | 34.9 µM

SMILES | GI50 | TGI
COc1ccc(/C(=C\C=C(C#N)C#N)Sc2nc3ccccc3s2)cc1 | 8.63 µM | 18.7 µM
CCN(CC)CCSc1c2ccccc2nc2c(OC)ccc(OC)c12 |  | > 22.2 µM
CCOC(=O)c1ccc(N=Nc2cc(C(=O)OCC)ccc2O)cc1 |  | > 100 µM
Cc1cc2cc3c(=O)[nH]c(=O)[nH]c3nc2cc1C |  | > 100 µM
[N-]=[N+]=N/C1=C/CCCCC(=O)C1 |  | > 100 µM
CC(C)OC(=O)[C@H](C)NP(=O)(OC[C@H]1O[C@@H](n2ccc(=O)[nH]c2=O)[C@](C)(F)[C@@H]1O)Oc1ccccc1 (stereo partly drawn) | > 100 µM | > 100 µM
O=C(O)c1ccc(C(=O)O)c2c(C(=O)O)ccc(C(=O)O)c12 |  | > 100 µM
Cc1cc(N(CCCNc2ccnc3cc(Cl)ccc23)Cc2ccc3c(c2)OCO3)nc(N2CCOCC2)n1 | 0.217 µM | 0.501 µM
O=C(/C=C/C=C/c1ccccc1)c1ccccc1 |  | 33 µM
C=CCN1CCC23c4c5ccc(O)c4OC2C(=NN=C2CCC4(O)C6Cc7ccc(O)c8c7C4(CCN6CC=C)C2O8)CCC3(O)C1C5 (stereo not drawn) |  | 44.4 µM
CN(C)CCNC(=O)c1cccc2c(Nc3ccc(S(=O)(=O)N=C(N)N)cc3)c3ccccc3nc12 |  | 22.8 µM
COC(=O)c1ccc(-c2c(C#N)[n+](=O)c3cc(Cl)c(Cl)cc3n2[O-])cc1 | 15.3 µM | 31.7 µM
COC(=O)C(C)NC(=O)C(CCSC)NC(=O)C(Cc1ccccc1)NC(=O)OC(C)(C)C (stereo not drawn) (Boc-Phe-Met-Ala-OMe; configuration not given here) | 28.2 µg/mL | > 100 µM
C/C(=N\NC(=S)N1CCCCCC1)c1ccccn1 |  | 0.33 µM and 0.268 µM
CC(C)=CCc1cc2c(cc1O)OC[C@H]1c3cc4c(cc3O[C@@H]21)OCO4 |  | > 100 µM
COc1ccc(Cn2c(N)c(S(=O)(=O)c3ccc(Cl)cc3)c3nc(C#N)c(C#N)nc32)cc1 | 4.36 µM | 17.8 µM

Tested on: COLO 205 colon
Experiment: DTP human tumour cell line panel, 48 h

SMILES | GI50 | TGI
Cn1c(Nc2ccc(C(F)(F)F)cc2)nc2cc(Oc3ccnc(-c4ncc(C(F)(F)F)[nH]4)c3)ccc21 | 0.367 µM | 10.6 µM
C[C@@]12CCC[C@@](C)(C(=O)O)C1CC[C@]13CC(=O)[C@](CO)(C1)[C@@H](O)CC32 (stereo partly drawn) | > 100 µM | > 100 µM
CN(C)C/C=C/C(=O)Nc1cc2c(Nc3ccc(F)c(Cl)c3)ncnc2cc1O[C@H]1CCOC1 | 0.998 µM and 0.887 µM | 3.09 µM and > 5.59 µM
Cn1cnnc1Sc1c([N+](=O)[O-])ncn1C |  | > 100 µM
C=CCC1(CN(C)C)CC/C(=C\c2ccc(Cl)cc2)C1=O (stereo not drawn) |  | > 59.8 µM
COC(=O)c1cc2c(s1)-c1nccc3c1c(nc1ccccc13)C2=O | 50.2 µM | > 100 µM
C[Si](C)(C)/C(I)=C/CO |  | 31.1 µM
Oc1ccc(Nc2c3ccccc3nc3occ(Cl)c23)cc1 | 4.12 µM | > 100 µM
CCCCCCCN=C(N)c1ccc(N2CCN(c3ccc(C(N)=NCCCCCCC)cc3)CC2)cc1 | 1.54 µM | > 52.6 µM
C[Si](C)(C)/C(Br)=C\CCN1C(=O)CCC1=O |  | > 100 µM
Cc1ccc(S(=O)OCc2c(C)c(C)c(COS(=O)c3ccc(C)cc3)c(C)c2C)cc1 (stereo not drawn) |  | > 100 µM
CCOC(=O)/C=C/c1ccc(C#Cc2ccccc2)cc1 | > 100 µM | > 100 µM
O=[P@@]1(c2ccccc2)O[C@H](COCc2ccccc2)[C@@H](OCc2ccccc2)[C@H](OCc2ccccc2)[C@H]1NCc1ccccc1 | 1.93 µM | 3.71 µM
C[C@H]1CN[C@@H]2[C@@H](C)[C@H]3[C@@H](C[C@H]4[C@@H]5CC[C@H]6C[C@@H](N)CC[C@]6(C)[C@H]5CC[C@]34C)O[C@@]2(O)C1 |  | 7.69 µM
CSc1ccccc1C#C/C=C\C#Cc1ccccc1N | 13.6 µM | 29.5 µM
COc1ccc(/C(=C\C=C(C#N)C#N)Sc2nc3ccccc3s2)cc1 | 7.24 µM | 17.4 µM
CCOC(=O)c1ccc(N=Nc2cc(C(=O)OCC)ccc2O)cc1 |  | > 100 µM
